Experimental data taken from paper PMC7822874, “Chemoprotective antimalarials identified through quantitative high-throughput screening of Plasmodium blood and liver stage parasites” (Scientific Reports, 2021).
Read-outs that look alike come from different tables or passages of the source.

Legend:
[1] = tested on: T1, Plasmodium falciparum Dd2-attB (parental line), asexual blood stages; experiment: microbe, parasite or virus in culture; parameters: species or system P. falciparum Dd2-attB in human erythrocytes; SYBR Green-I proliferation assay, Dd2-attB parental line, asexual blood stages; settings: Plasmodium falciparum, DD2, Erythrocyte, 72 h, read-out: Calculated / Average Log AC50 (M), mean of replicates, 72 h (converted)
T1 construct: Dd2-attB, the isogenic parental line

[2] = tested on: Plasmodium falciparum Dd2 asexual blood stage parasites; experiment: microbe, parasite or virus in culture; parameters: species or system Plasmodium falciparum Dd2 in human erythrocytes; single determination (one 11-point concentration-response curve); settings: Plasmodium falciparum, DD2, Erythrocyte, 72 h; read-out: AC50
[3] = tested on: luciferase-expressing P. berghei liver stage parasites in HepG2 cells; experiment: Inhibition of liver-stage development assay (ILSDA), Method 2 (WRAIR, 96-well); assay type: cell-based, Plasmodium berghei; settings: P. berghei liver stage, Method 2, dose response
[4] = in vitro; settings: human, HepG2-A16-CD81EGFP cells, uninfected
[5] = in vitro; settings: human, HepG2 cells; n = 1
[6] = tested on: HepG2-A16-CD81EGFP cells; settings: average of 2 wells, repeat 2; for HepG2 viability signal, 1 uM, repeat 2: nominal 1 uM (10 mM stock), […] for 15 mM, 1.2 uM for 12 mM, 2 uM for 20 mM stock; for HepG2 viability signal, 3 uM, repeat 2: nominal 3 uM (10 mM stock), 4.5 uM for 15 mM, 3.6 uM for 12 mM, 6 uM for 20 mM stock
[7] = tested on: P. berghei-ANKA-GFP-LucCON liver stage parasites in HepG2-A16-CD81EGFP cells; experiment: P. berghei liver stage Pb-Luc assay, Method 1 (UCSD, 1536-well); for Pb-Luc signal, 1 uM, repeat 1: reference of the scale not given here; for Pb-Luc signal, 1 uM, repeat 2: reference of the scale not given here; for Pb-Luc signal, 1 uM, repeat 3: reference of the scale not given here; for Pb-Luc signal, 3 uM, repeat 1: reference of the scale not given here; for Pb-Luc signal, 3 uM, repeat 2: reference of the scale not given here; for Pb-Luc signal, 3 uM, repeat 3: reference of the scale not given here; assay type: cell-based, Plasmodium berghei; settings: for Max Resp (signal direction of the dose response): Decrease = decreasing P. berghei viability with dose, Increase = increasing signal, Inactive = no dose response; for activity at 1 µM / activity at 3 µM: 48 h, average of 2 wells, 1536-well plate; for activity at 1 µM: nominal 1 uM (10 mM stock), […] for 15 mM, 1.2 uM for 12 mM, 2 uM for 20 mM stock; for activity at 3 µM: nominal 3 uM (10 mM stock), 4.5 uM for 15 mM, 3.6 uM for 12 mM, 6 uM for 20 mM stock
[8] = Plasmodium berghei, repeat 1, read-out: Pb-Luc signal, 1 uM, repeat 1
[9] = Plasmodium berghei, repeat 2, read-out: Pb-Luc signal, 1 uM, repeat 2
[10] = Plasmodium berghei, repeat 3, read-out: Pb-Luc signal, 1 uM, repeat 3
[11] = Plasmodium berghei, repeat 1, read-out: Pb-Luc signal, 3 uM, repeat 1
[12] = Plasmodium berghei, repeat 2, read-out: Pb-Luc signal, 3 uM, repeat 2
[13] = Plasmodium berghei, repeat 3, read-out: Pb-Luc signal, 3 uM, repeat 3

CCOC(=O)c1ccnc(CNCC(=O)N(CC)CCN(C)C)c1 [NCGC00371443-05]
AC50 [1]: 1.47e-07 M

O=C(O)c1ccnc2cc(C(OCCCC3CCCCN3)c3ccccc3Cl)[nH]c12 (centres unmarked) [NCGC00479271-01]
AC50 [1]: 8.94e-06 M

CC(C)c1c(-c2cnn(C(C)(C)C)c2)n2ncc(C#N)c2[nH]c1=O [NCGC00500019-01]
AC50 [1]: 1.53e-05 M

Cc1nn2c(c1-c1ccccc1-c1ccccc1)N(CCC(C)C)CCC2 [NCGC00420437-01]
AC50 [2]: 0.243 µM
Activity direction (Decrease / Inactive) [3]: Inactive
viability at 48 h, 1 µM [4]: 104%
viability at 48 h, 3 µM [4]: 10.8%
CC50 at 48 h [5]: 19.8 µM
HepG2 viability signal, 1 uM, repeat 2 [6]: 106.23%
HepG2 viability signal, 3 uM, repeat 2 [6]: 19.77%
Max Resp (signal direction of the dose response) ([7]; Method 1): Decrease
AC50 ([7]; Method 1, Hill fit, 50% of maximum activity response, read-out: AC50): 1.12 µM
Log AC50 (M) ([7]; Method 1, log10 of molar AC50 from Hill fit): -5.950 M
activity at 1 µM [7, 8]: 19.7%
activity at 1 µM [7, 9]: 20.4%
activity at 1 µM [7, 10]: 5.15%
activity at 3 µM [7, 11]: 4.48%
activity at 3 µM [7, 12]: 7.19%
activity at 3 µM [7, 13]: 3.33%
AC50 ([7]; Plasmodium berghei, Method 1, Hill fit, 50% of maximum activity response, read-out: AC50): 1 µM
AC50 ([7]; Plasmodium berghei, Method 1, log10 of molar AC50 from Hill fit, read-out: Log AC50 (converted)): 1 µM

O=C(O)c1ccnc(-n2ncc(C(OCCN3CCCCC3)c3ccccc3)c2-c2ccccc2Cl)c1 (centres unmarked) [NCGC00483104-01]
AC50 [1]: 1.36e-05 M

O=C(Nc1ccccc1F)c1nc([S+](=O)([O-])Cc2ccccc2F)ncc1Cl [NCGC00117146-03]
AC50 [1]: 1.34e-05 M

O=C(N[C@H]1CC(=O)N(c2cc(-c3ccccc3)[nH]n2)C1=O)c1ccccc1 [NCGC00489852-01]
AC50 [1]: 7.1e-10 M

C=C[S+](=O)([O-])N1CCCN(c2cc(NCCC(=O)O)nc(-c3ccccn3)n2)CC1 [NCGC00420874-01]
AC50 [1]: 2.25e-05 M

CC(C)c1ccc(CC(=O)N2CCCc3ncc(C(=O)Nc4cccnc4)cc32)cc1 [NCGC00420003-01]
AC50 [2]: 0.863 µM
Activity direction (Decrease / Inactive) [3]: Inactive
viability at 48 h, 1 µM [4]: 99%
viability at 48 h, 3 µM [4]: 35.6%
CC50 at 48 h [5]: 19.8 µM
HepG2 viability signal, 1 uM, repeat 2 [6]: 94.19%
HepG2 viability signal, 3 uM, repeat 2 [6]: 54.54%
Max Resp (signal direction of the dose response) ([7]; Method 1): Inactive
activity at 1 µM [7, 8]: 24.7%
activity at 1 µM [7, 9]: 4.89%
activity at 1 µM [7, 10]: 35.4%
activity at 3 µM [7, 11]: 3.66%
activity at 3 µM [7, 12]: 2.01%
activity at 3 µM [7, 13]: 4.19%

O=C(O)c1ccnc2c(O)cc(N3CCOCC3)cc12 [NCGC00247744-02]
AC50 [1]: 1.5e-07 M

COC(=O)c1ccnc(-c2cc(C(=O)NCCc3ccccc3)ccn2)c1 [NCGC00351541-01]
AC50 [1]: 2.16e-05 M
